Measurements taken from ChEMBL document CHEMBL1201862, “PubChem BioAssay data set” (2004).
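Where inhibition never reached the appropriate level, the endpoint shown equals the highest concentration tested. Otherwise, values were interpolated linearly from a five-concentration, 48-hour dose response in 96-well plates. Abbreviation: GI50, concentration required for 50% inhibition of growth.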 Activity calls are given as the source filed them. No stated cut-off is given here; in the data, active = GI50 up to about 1.1 µM and inactive = higher.

Assays:
Assay in all cases: NCI-60 cell line screen, 48 h
UACC-62 = system: UACC-62
TK-10 = system: TK-10
MDA-MB-435 = system: MDA-MB-435
OVCAR-5 = system: OVCAR-5
SK-MEL-5 = system: SK-MEL-5
CCRF-CEM = system: CCRF-CEM
HCT-116 = system: HCT-116
NCI/ADR-RES = system: NCI/ADR-RES
OVCAR-4 = system: OVCAR-4
CAKI-1 = system: CAKI-1
SNB-19 = system: SNB-19
786-0 = system: 786-0
MDA-N = system: MDA-N
U-251 = system: U-251
M14 = system: M14
K562 = system: K562
HL-60 = system: HL-60
MCF7 = system: MCF7
SK-OV-3 = system: SK-OV-3
T47D = system: T47D
BT-549 = system: BT-549
UO-31 = system: UO-31
HCC 2998 = system: HCC 2998
NCI-H23 = system: NCI-H23
ACHN = system: ACHN
HT-29 = system: HT-29
SK-MEL-2 = system: SK-MEL-2
SF-539 = system: SF-539
HCT-15 = system: HCT-15
MDA-MB-231 = system: MDA-MB-231
OVCAR-8 = system: OVCAR-8
SW-620 = system: SW-620
SK-MEL-28 = system: SK-MEL-28
SF-268 = system: SF-268
Hs-578T = system: Hs-578T
MOLT-4 = system: MOLT-4
SR = system: SR
HOP-92 = system: HOP-92
NCI-H522 = system: NCI-H522
LOX IMVI = system: LOX IMVI
OVCAR-3 = system: OVCAR-3
NCI-H460 = system: NCI-H460
SF-295 = system: SF-295
EKVX = system: EKVX
HOP-62 = system: HOP-62
COLO 205 = system: COLO 205
IGROV-1 = system: IGROV-1
NCI-H226 = system: NCI-H226
Malme-3M = system: Malme-3M
A549 = system: A549
RPMI-8226 = system: RPMI-8226
SNB-75 = system: SNB-75
DU-145 = system: DU-145
SN12C = system: SN12C
A498 = system: A498
KM12 = system: KM12
PC-3 = system: PC-3
RXF 393 = system: RXF 393
UACC-257 = system: UACC-257

Measured: GI50

OC(C1=C/C(=C\c2ccncc2)c2ccccc21)c1ccncc1 (stereo unspecified)
16.5 µM: HCT-15
inactive: UACC-62 9.16 µM | TK-10 13.6 µM | MDA-MB-435 12 µM | OVCAR-5 15.8 µM | SK-MEL-5 3.21 µM | CCRF-CEM 7.41 µM | HCT-116 13.6 µM | NCI/ADR-RES 14.6 µM | OVCAR-4 12.4 µM | CAKI-1 7.83 µM | SNB-19 19.1 µM | 786-0 12.9 µM | MDA-N 10.8 µM | U-251 14.7 µM | M14 12.4 µM | K562 4.72 µM | HL-60 1.66 µM | MCF7 9.86 µM | SK-OV-3 13.8 µM | T47D 4.38 µM | BT-549 19 µM | UO-31 8.99 µM | HCC 2998 8.39 µM | NCI-H23 12.4 µM | ACHN 14.8 µM | HT-29 11.8 µM | SK-MEL-2 14.3 µM | SF-539 13.9 µM | MDA-MB-231 6.98 µM | OVCAR-8 22.2 µM | SW-620 23 µM | SK-MEL-28 14.3 µM | SF-268 18.5 µM | Hs-578T 12.2 µM | MOLT-4 5.71 µM | SR 5.4 µM | HOP-92 13.6 µM | NCI-H522 9.48 µM | LOX IMVI 12.1 µM | OVCAR-3 11.1 µM | NCI-H460 12.9 µM | SF-295 8.65 µM | EKVX 5.65 µM | HOP-62 10.2 µM | COLO 205 14.5 µM | IGROV-1 14.4 µM | NCI-H226 13.6 µM | Malme-3M 15.1 µM | A549 13.3 µM | RPMI-8226 2.37 µM | SNB-75 5.85 µM | DU-145 17 µM | SN12C 13.9 µM | A498 12.9 µM | KM12 15.6 µM | PC-3 10.8 µM | RXF 393 14 µM | UACC-257 6.34 µM

CC(=O)OCC1(C)C(O)CCC2(C)C1CCC1CC3CC12CCC3(O)CO (stereo unspecified)
> 100 µM: HCT-15
active: A498 0.541 µM
inactive: UACC-62 61.8 µM | TK-10 > 100 µM | MDA-MB-435 > 100 µM | OVCAR-5 > 100 µM | SK-MEL-5 > 79.4 µM | CCRF-CEM 9.77 µM | HCT-116 76 µM | NCI/ADR-RES 37.7 µM | OVCAR-4 > 87.5 µM | CAKI-1 17.9 µM | SNB-19 > 100 µM | 786-0 44.4 µM | MDA-N > 100 µM | U-251 > 100 µM | M14 > 100 µM | K562 > 100 µM | HL-60 6.35 µM | MCF7 > 100 µM | SK-OV-3 > 100 µM | T47D > 100 µM | BT-549 > 86.3 µM | UO-31 25 µM | HCC 2998 20.8 µM | NCI-H23 58.7 µM | ACHN 4.46 µM | HT-29 34.3 µM | SK-MEL-2 > 100 µM | SF-539 50.6 µM | MDA-MB-231 > 100 µM | OVCAR-8 44.1 µM | SW-620 > 95.7 µM | SK-MEL-28 > 100 µM | SF-268 > 80.2 µM | Hs-578T > 53.6 µM | MOLT-4 > 56.5 µM | SR 4.42 µM | HOP-92 > 81.5 µM | NCI-H522 > 26.6 µM | LOX IMVI 44.3 µM | OVCAR-3 > 100 µM | NCI-H460 6.75 µM | SF-295 10.8 µM | EKVX > 100 µM | HOP-62 36.5 µM | COLO 205 > 100 µM | IGROV-1 > 47 µM | NCI-H226 > 100 µM | Malme-3M > 100 µM | A549 55.1 µM | RPMI-8226 47.5 µM | SNB-75 > 100 µM | DU-145 42.6 µM | SN12C > 100 µM | KM12 > 100 µM | PC-3 > 91 µM | RXF 393 > 100 µM | UACC-257 > 100 µM

COc1ccc2cc(CNCCCN3CCN(CCCNCc4ccc5cc(OC)ccc5c4)CC3)ccc2c1
1.57 µM: HCT-15
active: UACC-62 0.569 µM | CCRF-CEM 0.45 µM | K562 0.198 µM | HL-60 0.24 µM | HCC 2998 0.24 µM | HT-29 0.49 µM | SW-620 0.327 µM | MOLT-4 0.859 µM | SR 0.333 µM | LOX IMVI 0.55 µM | NCI-H460 0.83 µM | RPMI-8226 0.276 µM | KM12 0.789 µM | PC-3 0.966 µM
inactive: TK-10 1.89 µM | MDA-MB-435 1.6 µM | OVCAR-5 1.17 µM | SK-MEL-5 1.69 µM | HCT-116 1.26 µM | NCI/ADR-RES 2.21 µM | OVCAR-4 1.96 µM | CAKI-1 1.78 µM | SNB-19 1.76 µM | 786-0 1.55 µM | MDA-N 1.44 µM | U-251 1.75 µM | M14 1.6 µM | MCF7 1.35 µM | SK-OV-3 1.42 µM | T47D 1.32 µM | BT-549 1.78 µM | UO-31 1.76 µM | NCI-H23 1.91 µM | ACHN 1.8 µM | SK-MEL-2 1.93 µM | SF-539 1.81 µM | MDA-MB-231 1.9 µM | OVCAR-8 1.73 µM | SK-MEL-28 1.71 µM | SF-268 1.77 µM | Hs-578T 1.52 µM | HOP-92 1.43 µM | NCI-H522 2.24 µM | OVCAR-3 1.63 µM | SF-295 1.68 µM | EKVX 1.73 µM | HOP-62 1.65 µM | COLO 205 1.4 µM | IGROV-1 1.72 µM | NCI-H226 1.91 µM | Malme-3M 1.72 µM | A549 1.83 µM | SNB-75 1.62 µM | DU-145 1.54 µM | SN12C 1.69 µM | A498 1.66 µM | RXF 393 1.46 µM | UACC-257 2.22 µM

CN1c2ccc(O)c(O)c2-c2cc(O)cc3c2C1CCC3 (stereo unspecified)
inactive: UACC-62 16.3 µM | TK-10 18 µM | MDA-MB-435 15.6 µM | OVCAR-5 24.5 µM | SK-MEL-5 15.7 µM | CCRF-CEM 2.58 µM | HCT-116 14.6 µM | NCI/ADR-RES 18 µM | OVCAR-4 13.4 µM | CAKI-1 20.3 µM | SNB-19 63.5 µM | 786-0 15.2 µM | MDA-N 16.9 µM | U-251 23.4 µM | M14 16.2 µM | K562 14.4 µM | HL-60 14.6 µM | MCF7 14.2 µM | SK-OV-3 51.9 µM | T47D 15.9 µM | BT-549 17.3 µM | UO-31 13.6 µM | HCC 2998 20.5 µM | NCI-H23 22.9 µM | ACHN 16.7 µM | HT-29 19.1 µM | SK-MEL-2 24 µM | SF-539 21.6 µM | MDA-MB-231 23.7 µM | OVCAR-8 19.1 µM | SW-620 17.5 µM | SK-MEL-28 20.8 µM | SF-268 14.2 µM | Hs-578T 35.2 µM | MOLT-4 7.4 µM | SR 7 µM | HOP-92 13.9 µM | NCI-H522 4.5 µM | LOX IMVI 11.2 µM | OVCAR-3 4.55 µM | NCI-H460 23.9 µM | SF-295 57.7 µM | EKVX 20.7 µM | HOP-62 14.1 µM | COLO 205 20.7 µM | IGROV-1 11.6 µM | NCI-H226 27.9 µM | Malme-3M 15.9 µM | A549 29.9 µM | RPMI-8226 3.31 µM | SNB-75 16.3 µM | DU-145 16 µM | SN12C 17.5 µM | A498 > 76.2 µM | KM12 21.4 µM | PC-3 19.2 µM | RXF 393 7.23 µM | UACC-257 19.1 µM
20.6 µM: HCT-15
